Residues, ends and D or L forms follow the SMILES beside them.
Assay: Inhibition of M-CSF/sRANKL-induced mouse BMDM differentiation into osteoclast after 72 hrs by TRAP staining-based microscopic analysis

With C#CCCC/C=C(\C)C(=O)N(C)[C@H](C(=O)N(C)[C@H](C(=O)N(C)[C@H](C(=O)N(C)[C@H](C(=O)N1CCC[C@H]1C(=O)N1CCC[C@H]1C(=O)CC)C(C)C)C(C)C)[C@@H](C)CC)[C@@H](C)CC (HELM PEPTIDE1{[C#CCCC/C=C(\C)C(=O)[*:2]].[meI].[meI].[meV].[meV].P.[CCC(=O)[C@@H]1CCCN1[*:1]]}$$$$V2.0) the IC50 was 780 nM.

— BindingDB's records for doi:10.1016/j.bmcl.2015.09.044 (Keio University, 2015)
